Experimental findings from patent US20230024521A1, “JAK INHIBITORS” (Vimalan Biosciences, Inc., priority 2019, published 2023) are described below.

One test addresses JAK2 (Homo sapiens, UniProt O60674). Briefly: JAK/TYK2 assay (Kinase Glo luminescence): Jak2 kinase assay. It is filed as biochemical. The note with it: 0.8 nM enzyme, 2 uM ATP, 4 uM pEY, 1 hr; read-out: Jak2 kinase assay: IC50 Geomean. As to the method: Example A: JAK/TYK2 Assay 10 mM test compound stock or 1 mM control compound stock (tofocitinib, ruxolitinib or staurosporine) in DMSO was diluted to 0.4 mM in DMSO. A 3-fold series dilution was then performed in DMSO to generate 10 different compound concentrations. The assay was carried out in 384-well white plate. 0.5 μL of 40× compound DMSO solution at different concentrations was mixed with 10 uL 2× enzyme prepared in reaction buffer (20 mM HEPES, 10 mM MgCl2, 0.01% Tween, 1 mM DTT, pH 7.5). 10 uL 2× substrate mixture prepared in reaction buffer was then added to start the reaction. A short spin was done to settle down all solutions to the bottom of the plate. Final concentrations of test compound in the reaction mixture were 10000, 3333, 1111, 370, 123, 41.2, 13.7, 4.57, 1.52 and 0.51 nM, Concentrations of control compound were ten times less. Enzymatic reaction was conducted at 25° C. for 1-2 hours. 10 uL of Kinase Glo Reagents was added to stop the reaction and generate the luminescent signal which was measured using Envision. Luminescence signal was inversely related to kinase activity. […] The mixture without any compound was the positive control. [table]
(In general: Kinase-Glo reads ATP consumption through a luciferase reaction.)

In test [1] the test system is JAK2: GM-CSF stimulated STAT5 phosphorylation. Briefly: Co-stimulation assay in lysed whole blood; JAK2: GM-CSF stimulated STAT5 phosphorylation. It is filed as cell-based, human. The note with it: for pIC50: lysed human whole blood, GM-CSF 10 ng/mL (with IFNa 100 ng/mL), pSTAT5 by flow cytometry, read-out: GMCSF/J2/pS5: GeoMean; for IC50: Homo sapiens, read-out: GMCSF/J2/pS5: GeoMean (nM). How it is done: Example C: Co-Stimulation Assay in Lysed Whole Blood; JAK2: GM-CSF Stimulated STAT5 Phosphorylation and JAK1/TYK2 Stimulated STAT1 Phosphorylation Assay
Human Blood Lysis using abcam's RBC lysis buffer
Dilute RBC lysis buffer to 1× in distilled water. Add 2 mL blood to 38 mL of 1×RBC-lysis buffer. Incubate for 15 mins at RT, in dark. Spin at 300 g, 5 mins, to collect the pellet. Re-lyse if necessary. Re-suspend pellet in 5 mL of cRPMI.
Aliquot 80 μL of lysed human blood in to wells of 96 deep-well plate. Add 10 μl of (10× conc.) of different concentrations of compounds to all wells except controls (unstained and unstimulated) and mix it with the help of 100 uL multichannel Add 10 uL of RPMI media in controls. For dilution of compounds and dilution range please refer Appendix. Incubate on water bath or CO2 incubator for 1 hour at 37° C. Add 10 μl of (10× conc.) of cytokine mix (GM-CSF and IFNa) (final conc. 10 ng/mL of GM-CSF and 100 ng/mL of IFNa) to each well except unstimulated and unstained controls and incubate further for 20 minutes on water bath at 37° C.
Add 900 μL of prewarmed 1× Fix/Lyse solution (Appendix) and mix it properly using 1000 μl multichannel, incubate further on water bath at 37° C. for 10 minutes (which includes time of addition). Centrifuge at 800×g for 5 minutes at 40° C.; remove 900 uL of supernatant and add 900 μL of 1×PBS. Centrifuge at 800×g for 5 minutes at 40° C., remove 900 μL of supernatant. Wash one more time with 900 μL of PBS (optional) and resuspend pellets in 100 uL of PBS.
Disrupt the pellet by gentle tapping and resuspend in 1000 μL of BD Phosflow Perm Buffer III and incubate plate on ice for 30 minutes. Centrifuge plate at 800×g for 5 minutes at 40° C. Wash two more times with 1000 μL of BD Pharmingen Stain Buffer.
Disrupt the pellet by gentle tapping. Resuspend pellets in 100 uL of Stain Buffer and add 5 μL of pSTAT5_AF488 Ab and 5 uL of pSTAT1_PE in all wells except unstained control and mix properly using 200 μl multichannel, incubate overnight at […]. Add 900 μL of wash buffer and centrifuge at 1800 rpm for 3 minutes at […]. Wash one more time with 1000 μL of BD Pharmingen Stain Buffer. Finally resuspend the pellet in 300 uL of BD Pharmingen Stain Buffer. Transfer the cells to 96-well v-bottom plate and acquire the cells in Beckman Coulter CytExpert. Acquiring cells in Flow Cytometer: Keep the threshold value to 250 and cell concentration should not exceed 100-500 cells/4. Acquire at least 5,000-10,000 cells.
RPMI 1640 Complete Medium: RPMI 1640 media+10% FBS.
Cytokine dilution: 1) GM-CSF Stock at 100 ug/mL. Prepare an intermediate dilution of 1 ug/mL by adding 2 uL of stock into 198 uL of cRPMI. Further dilute to 100 ng/mL by adding 100 uL of the intermediate stock to 900 uL of cRPMI. 2) IFNa Stock at 200 ug/mL. Dilute IFNa stock 1:200 by adding 5 uL of stock into the 1000 uL of 100 ng/mL GM-CSF working stock as above to give a combined working stock of 1000 ng/mL of IFNa and 100 ng/mL GM-CSF (10×). Keep it on ice until used.
Lyse/Fix buffer preparation: Dilute 5× Lyse/Fix buffer to 1× using MQ water and keep at 37° C. until used.
BD Phosflow perm buffer III: Keep on ice/fridge
(In general: A flow cytometer gives signals particle by particle.)

pIC50: −log10 of the molar value. Read-outs that look alike come from different tables or passages of the source. A value given as a limit tells only on which side of the number the result lay.

JAK2, sequence (O60674 whole entry, species assumed): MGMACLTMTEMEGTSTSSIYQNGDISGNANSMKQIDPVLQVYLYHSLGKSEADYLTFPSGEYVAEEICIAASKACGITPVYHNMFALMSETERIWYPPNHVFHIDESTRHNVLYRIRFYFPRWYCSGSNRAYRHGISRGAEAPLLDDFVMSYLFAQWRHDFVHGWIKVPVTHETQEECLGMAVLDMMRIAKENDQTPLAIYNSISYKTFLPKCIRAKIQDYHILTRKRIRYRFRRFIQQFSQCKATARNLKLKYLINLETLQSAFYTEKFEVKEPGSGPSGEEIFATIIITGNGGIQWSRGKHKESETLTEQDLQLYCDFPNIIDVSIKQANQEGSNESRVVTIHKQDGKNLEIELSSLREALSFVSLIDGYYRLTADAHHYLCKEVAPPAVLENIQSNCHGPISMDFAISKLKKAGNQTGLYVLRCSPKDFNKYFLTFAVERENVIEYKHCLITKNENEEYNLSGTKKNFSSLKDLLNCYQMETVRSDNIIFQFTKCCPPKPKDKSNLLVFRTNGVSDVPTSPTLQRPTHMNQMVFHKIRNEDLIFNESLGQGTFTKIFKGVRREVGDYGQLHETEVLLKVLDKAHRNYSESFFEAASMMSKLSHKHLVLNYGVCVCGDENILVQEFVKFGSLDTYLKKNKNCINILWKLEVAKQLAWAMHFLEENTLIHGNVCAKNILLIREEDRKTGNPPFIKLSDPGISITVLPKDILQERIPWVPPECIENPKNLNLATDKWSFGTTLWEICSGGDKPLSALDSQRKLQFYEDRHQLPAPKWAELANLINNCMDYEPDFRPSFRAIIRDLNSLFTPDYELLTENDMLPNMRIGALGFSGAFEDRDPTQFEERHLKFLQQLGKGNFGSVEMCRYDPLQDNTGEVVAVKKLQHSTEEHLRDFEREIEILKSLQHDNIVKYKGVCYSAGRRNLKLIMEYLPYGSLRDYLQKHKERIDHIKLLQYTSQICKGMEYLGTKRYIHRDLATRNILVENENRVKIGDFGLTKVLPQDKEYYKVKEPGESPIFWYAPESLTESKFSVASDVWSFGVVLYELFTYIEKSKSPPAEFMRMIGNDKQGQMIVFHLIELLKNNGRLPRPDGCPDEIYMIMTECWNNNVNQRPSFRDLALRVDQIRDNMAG

As to `CC[C@H](Cn1ccc2cnc(Nc3cnn(CC(N)=O)c3)nc21)C(C)C` [Example 1, (S)-2-(4-((7-(2-ethyl-3-methylbutyl)-7H-pyrrolo[2,3-d]pyrimidin-2-yl)amino)-1H-pyrazol-1-yl) acetamide], the pIC50 is greater than 7.00 on JAK2 and 6.00 to 7.00 in test [1].

Take `CC[C@H](Cn1ccc2cnc(Nc3cnn(CC(=O)N4CCOC4=O)c3)nc21)C(C)C` [Example 3, (5)-3-(2-(4-((7-(2-ethyl-3-methylbutyl)-7H-pyrrolo[2,3-d]pyrimidin-2-yl)amino)-1H-pyrazol-1-yl)acetyl) oxazolidin-2-one]: the pIC50 at JAK2 is greater than 7.00. Moreover, the IC50 in test [1] lay in the range of 1000 to 10000 nM.

Take `CCC(CC)Cn1ccc2cnc(Nc3cnn(CC(N)=O)c3)nc21` [Example 7, 2-(4-((7-(2-ethylbutyl)-7H-pyrrolo[2,3-d]pyrimidin-2-yl)amino)-1H-pyrazol-1-yl) acetamide]: the pIC50 is greater than 7.00 on JAK2 and 6.00 to 7.00 in test [1].

As to `CC[C@@H](Cn1ccc2cnc(Nc3cnn(C4CCNC4=O)c3)nc21)C(C)C` (some centres unmarked) [Example 8], at JAK2, the pIC50 is greater than 7.00. For the same molecule, the IC50 in test [1] was in the range of 1000 to 10000 nM.
